How the values were obtained:
Experiment in all cases: relative viability (nuclei count vs DMSO), 5 days (fraction); higher = more cells survive
NCI-H2405 = tested on: NCI-H2405
Outline: (§1)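 Relative viability divides the nuclei count in treated wells by that in vehicle wells. Lung cancer cell lines were seeded in 1536-well plates, dosed by pin tool the next day, and fixed and stained after 5 days in one step with final 0.05% Triton X-100, 1% formaldehyde and 1 ug/ml Hoechst. Dosing was a single drug or a fixed anchor-drug dose plus five library-drug doses (not always all listed) in √10 steps, and values are medians of duplicate plates imaged at 4×.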

HOP-62 = tested on: HOP-62
Outline: as §1

PC-14 = tested on: PC-14
Outline: as §1

NCI-H838 = tested on: NCI-H838
Outline: as §1

NCI-H2228 = tested on: NCI-H2228
Outline: as §1

NCI-H1993 = tested on: NCI-H1993
Outline: as §1

LK-2 = tested on: LK-2
Outline: as §1

LC-2-ad = tested on: LC-2-ad
Outline: as §1

NCI-H2009 = tested on: NCI-H2009
Outline: as §1

NCI-H3122 = tested on: NCI-H3122
Outline: as §1

SW 1573 = tested on: SW 1573
Outline: as §1

SK-MES-1 = tested on: SK-MES-1
Outline: as §1

Question: What does the source list for O=c1[nH]c2ccccc2n1C1CCN(CCCC(c2ccc(F)cc2)c2ccc(F)cc2)CC1 [Pimozide] + CC1(C)CCC(c2ccc(Cl)cc2)=C(CN2CCN(c3ccc(C(=O)NS(=O)(=O)c4ccc(N[C@H](CCN5CCOCC5)CSc5ccccc5)c(S(=O)(=O)C(F)(F)F)c4)cc3)CC2)C1 [Navitoclax] (partner 0.5 µM)?
Answer: relative viability (NCI-H2405; first compound 0.8 µM): 0.89; relative viability (NCI-H2405; first compound 2.53 µM): 0.801; relative viability (NCI-H2405; first compound 8 µM): 0.637; relative viability (HOP-62; first compound 0.08 µM): 1.11; relative viability (HOP-62; first compound 0.253 µM): 0.851; relative viability (HOP-62; first compound 0.8 µM): 0.812; relative viability (HOP-62; first compound 2.53 µM): 1.03; relative viability (HOP-62; first compound 8 µM): 0.903; relative viability (PC-14; first compound 0.08 µM): 1.04; relative viability (PC-14; first compound 0.253 µM): 1; relative viability (PC-14; first compound 0.8 µM): 0.99; relative viability (PC-14; first compound 2.53 µM): 1.09; relative viability (PC-14; first compound 8 µM): 0.967; relative viability (NCI-H838; first compound 0.08 µM): 1.18; relative viability (NCI-H838; first compound 0.253 µM): 1.12; relative viability (NCI-H838; first compound 0.8 µM): 1.01; relative viability (NCI-H838; first compound 2.53 µM): 1.11; relative viability (NCI-H838; first compound 8 µM): 1.16; relative viability (NCI-H2228; first compound 0.08 µM): 0.758; relative viability (NCI-H2228; first compound 0.253 µM): 0.715; relative viability (NCI-H2228; first compound 0.8 µM): 0.845; relative viability (NCI-H2228; first compound 2.53 µM): 0.616; relative viability (NCI-H2228; first compound 8 µM): 0.614; relative viability (NCI-H1993; first compound 0.08 µM): 0.797; relative viability (NCI-H1993; first compound 0.253 µM): 0.826; relative viability (NCI-H1993; first compound 0.8 µM): 0.91; relative viability (NCI-H1993; first compound 2.53 µM): 0.933; relative viability (NCI-H1993; first compound 8 µM): 0.806; relative viability (LK-2; first compound 0.08 µM): 0.818; relative viability (LK-2; first compound 0.253 µM): 0.724; relative viability (LK-2; first compound 0.8 µM): 0.811; relative viability (LK-2; first compound 2.53 µM): 0.721; relative viability (LK-2; first compound 8 µM): 1.05; relative viability (LC-2-ad; first compound 0.08 µM): 0.498; relative viability (LC-2-ad; first compound 0.253 µM): 0.509; relative viability (LC-2-ad; first compound 0.8 µM): 0.286; relative viability (LC-2-ad; first compound 2.53 µM): 0.421; relative viability (LC-2-ad; first compound 8 µM): 0.392; relative viability (NCI-H2009; first compound 0.08 µM): 1.2; relative viability (NCI-H2009; first compound 0.253 µM): 1.14; relative viability (NCI-H2009; first compound 0.8 µM): 1.13; relative viability (NCI-H2009; first compound 2.53 µM): 1.2; relative viability (NCI-H2009; first compound 8 µM): 1.01; relative viability (NCI-H3122; first compound 0.08 µM): 0.987; relative viability (NCI-H3122; first compound 0.253 µM): 1.06; relative viability (NCI-H3122; first compound 0.8 µM): 1.04; relative viability (NCI-H3122; first compound 2.53 µM): 0.982; relative viability (NCI-H3122; first compound 8 µM): 0.957; relative viability (SW 1573; first compound 0.08 µM): 0.92; relative viability (SW 1573; first compound 0.253 µM): 1.04; relative viability (SW 1573; first compound 0.8 µM): 0.799; relative viability (SW 1573; first compound 2.53 µM): 1.02; relative viability (SW 1573; first compound 8 µM): 0.796; relative viability (SK-MES-1; first compound 0.08 µM): 1.31; relative viability (SK-MES-1; first compound 0.253 µM): 1.25; relative viability (SK-MES-1; first compound 0.8 µM): 1.18; relative viability (SK-MES-1; first compound 2.53 µM): 1.21; relative viability (SK-MES-1; first compound 8 µM): 1.08
